Read-outs that look alike come from different tables or passages of the source.
How the values were obtained:
[1] = target: RIPK2 (Homo sapiens (Human), UniProt O43353); assay: Dundee profiling
[2] = target: TrkA (Homo sapiens (Human), UniProt P04629); assay: Dundee profiling
[3] = target: PAK5 (Homo sapiens (Human), UniProt Q9P286); assay: Dundee profiling
[4] = target: TTK (Homo sapiens (Human), UniProt P33981); assay: Dundee profiling
[5] = target: NEK2a (Homo sapiens (Human), UniProt P51955); assay: Dundee profiling
[6] = target: MAPKAP-K2 (Homo sapiens (Human), UniProt P49137); assay: Dundee profiling
Chain of MAPKAP-K2 (P49137 whole entry, species assumed): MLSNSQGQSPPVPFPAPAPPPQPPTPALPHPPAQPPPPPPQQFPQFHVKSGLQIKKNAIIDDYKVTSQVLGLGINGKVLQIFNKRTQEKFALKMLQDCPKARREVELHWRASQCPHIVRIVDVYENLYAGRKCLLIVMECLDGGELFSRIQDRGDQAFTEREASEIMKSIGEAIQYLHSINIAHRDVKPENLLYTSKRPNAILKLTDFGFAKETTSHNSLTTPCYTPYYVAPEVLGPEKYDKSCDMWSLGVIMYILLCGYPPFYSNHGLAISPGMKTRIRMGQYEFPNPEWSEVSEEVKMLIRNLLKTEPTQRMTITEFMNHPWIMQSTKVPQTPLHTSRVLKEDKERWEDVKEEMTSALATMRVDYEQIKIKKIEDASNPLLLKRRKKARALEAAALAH

[7] = target: TAK1 (Homo sapiens (Human), UniProt O43318); assay: Dundee profiling
Chain of TAK1 (O43318 whole entry, looked up): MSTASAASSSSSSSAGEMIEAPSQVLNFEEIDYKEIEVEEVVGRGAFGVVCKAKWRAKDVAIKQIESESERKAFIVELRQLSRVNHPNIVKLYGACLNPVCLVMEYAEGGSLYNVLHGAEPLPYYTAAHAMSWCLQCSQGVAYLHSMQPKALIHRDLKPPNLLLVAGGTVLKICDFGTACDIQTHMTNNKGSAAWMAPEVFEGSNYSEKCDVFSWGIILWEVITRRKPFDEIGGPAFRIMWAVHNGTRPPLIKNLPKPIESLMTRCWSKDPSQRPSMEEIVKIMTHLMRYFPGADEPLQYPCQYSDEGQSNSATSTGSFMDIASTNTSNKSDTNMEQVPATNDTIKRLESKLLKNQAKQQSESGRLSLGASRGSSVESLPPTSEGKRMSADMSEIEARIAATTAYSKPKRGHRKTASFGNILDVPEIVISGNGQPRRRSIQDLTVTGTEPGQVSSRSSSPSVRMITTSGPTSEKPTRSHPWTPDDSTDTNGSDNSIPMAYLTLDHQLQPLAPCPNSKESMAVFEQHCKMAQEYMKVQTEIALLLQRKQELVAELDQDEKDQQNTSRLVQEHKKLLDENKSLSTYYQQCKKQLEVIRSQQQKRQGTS

[8] = target: EGFR (L861Q) (Homo sapiens (Human), UniProt P00533, L861Q); assay: KinomeScan; format: binding; details: 1 uM
[9] = target: CIT (Homo sapiens (Human), UniProt O14578); assay: KinomeScan; format: binding; details: 1 uM
[10] = target: MET (Homo sapiens (Human), UniProt P08581); assay: KinomeScan; format: binding; details: 1 uM
[11] = target: CHK1 (Homo sapiens (Human), UniProt O14757); assay: Dundee profiling
[12] = target: PLK2 (Homo sapiens (Human), UniProt Q9NYY3); assay: KinomeScan; format: binding; details: 1 uM
[13] = target: PIM2 (Homo sapiens (Human), UniProt Q9P1W9); assay: Dundee profiling
Chain of PIM2 (Q9P1W9 whole entry, looked up, species assumed): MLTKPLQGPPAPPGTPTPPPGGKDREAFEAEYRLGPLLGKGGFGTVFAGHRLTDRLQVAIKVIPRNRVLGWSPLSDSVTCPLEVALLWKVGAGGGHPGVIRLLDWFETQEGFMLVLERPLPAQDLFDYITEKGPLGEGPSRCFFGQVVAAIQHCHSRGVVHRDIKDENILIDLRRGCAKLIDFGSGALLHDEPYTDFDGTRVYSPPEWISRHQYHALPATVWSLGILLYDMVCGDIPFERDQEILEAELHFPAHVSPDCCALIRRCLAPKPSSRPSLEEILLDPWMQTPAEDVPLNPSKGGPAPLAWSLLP

[14] = target: wild-type GFP-LRRK2 (Homo sapiens (Human), UniProt Q5S007); assay: Ser910/Ser935 phosphorylation immunoblot in HEK293 cells; format: cell-based; details: 90 min
Description: FIG. 2A-2D show inhibition of LRRK2 by Compound 18. HEK293 cells stably expressing FIG. 2A: wild-type GFP-LRRK2, FIG. 2B: GFP-LRRK2[G2019S], FIG. 2C: GFP-LRRK2[G2019S+A2016T], and FIG. 2D: GFP-LRRK2[A2016T] were treated with dimethylsulfoxide (DMSO) or increasing concentrations of Compound 18 for 90 min (1 μM of LRRK2-IN-1 was used as a control). Cell lysates were subjected to immunoblotting for detection of LRRK2 phosphorylated at Ser910 and Ser935 and for total LRRK2.
HEK293 and Swiss 3T3 cells were cultured in DMEM (Dulbecco's Modified Eagle's medium) supplemented with 10% FBS (fetal bovine serum), 2 mM glutamine and 1× penicillin/streptomycin solution. HEK-293 T-Rex cell lines were cultured in DMEM supplemented with 10% (v/v) FBS and 2 mM glutamine, lx penicillin/streptomycin solution, 15 μg/ml blastocidin and 100 μg/ml hygromycin. T-Rex cultures were induced to express the indicated protein by inclusion of 0.1 μg/ml doxycycline in the culture medium for 24-48 hr. […] Protein concentrations were determined following centrifugation of the lysate at 16,000×g at 4° C. for 20 minutes using the Bradford method with BSA as the standard. […]
As there are no validated direct phosphorylation substrates of LRRK2, phosphorylation of Ser910 and Ser935, two residues whose phosphorylation is known to be dependent upon LRRK2 kinase activity, was monitored.

[15] = target: MINK1 (Homo sapiens (Human), UniProt Q8N4C8); assay: Dundee profiling
Chain of MINK1 (Q8N4C8 whole entry, species assumed): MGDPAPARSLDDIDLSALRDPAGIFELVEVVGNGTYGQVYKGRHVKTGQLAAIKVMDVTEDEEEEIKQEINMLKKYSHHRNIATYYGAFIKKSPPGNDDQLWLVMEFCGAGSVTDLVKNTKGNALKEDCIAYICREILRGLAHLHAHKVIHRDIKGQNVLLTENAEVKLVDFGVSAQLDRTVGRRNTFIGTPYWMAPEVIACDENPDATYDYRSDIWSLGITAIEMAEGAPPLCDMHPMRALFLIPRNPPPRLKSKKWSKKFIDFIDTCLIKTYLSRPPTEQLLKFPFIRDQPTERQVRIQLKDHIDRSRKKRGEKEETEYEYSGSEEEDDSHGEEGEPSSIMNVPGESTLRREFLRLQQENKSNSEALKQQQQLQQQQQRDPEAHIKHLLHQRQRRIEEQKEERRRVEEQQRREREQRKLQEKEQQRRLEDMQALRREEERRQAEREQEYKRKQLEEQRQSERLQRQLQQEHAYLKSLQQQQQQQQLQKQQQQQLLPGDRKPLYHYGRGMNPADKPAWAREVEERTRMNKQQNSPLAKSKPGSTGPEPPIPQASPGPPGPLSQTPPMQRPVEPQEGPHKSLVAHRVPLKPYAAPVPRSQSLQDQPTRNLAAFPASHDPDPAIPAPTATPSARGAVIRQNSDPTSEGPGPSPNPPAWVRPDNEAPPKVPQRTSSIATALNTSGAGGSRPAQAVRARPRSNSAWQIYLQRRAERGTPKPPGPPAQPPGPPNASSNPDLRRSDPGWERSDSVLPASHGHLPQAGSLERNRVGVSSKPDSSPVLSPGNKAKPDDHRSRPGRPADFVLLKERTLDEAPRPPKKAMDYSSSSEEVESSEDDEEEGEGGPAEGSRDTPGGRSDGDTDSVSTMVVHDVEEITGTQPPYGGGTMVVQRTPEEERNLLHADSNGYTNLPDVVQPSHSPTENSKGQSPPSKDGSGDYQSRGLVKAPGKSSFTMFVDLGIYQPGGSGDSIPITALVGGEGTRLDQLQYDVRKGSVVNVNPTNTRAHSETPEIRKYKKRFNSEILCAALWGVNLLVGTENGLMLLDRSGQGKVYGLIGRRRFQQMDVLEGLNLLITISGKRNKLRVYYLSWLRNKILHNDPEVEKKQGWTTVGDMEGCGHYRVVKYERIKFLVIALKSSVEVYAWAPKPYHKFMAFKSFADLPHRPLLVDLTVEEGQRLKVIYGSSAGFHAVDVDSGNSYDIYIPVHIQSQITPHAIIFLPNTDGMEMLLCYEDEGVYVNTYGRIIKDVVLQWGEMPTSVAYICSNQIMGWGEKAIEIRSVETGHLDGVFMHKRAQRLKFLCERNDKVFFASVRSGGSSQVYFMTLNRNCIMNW

[16] = target: JAK2 (JH1domain-catalytic) (Homo sapiens (Human), UniProt O60674); assay: KinomeScan; format: binding; details: 1 uM
[17] = target: PAK6 (Homo sapiens (Human), UniProt Q9NQU5); assay: Dundee profiling
Chain of PAK6 (Q9NQU5 whole entry, species assumed): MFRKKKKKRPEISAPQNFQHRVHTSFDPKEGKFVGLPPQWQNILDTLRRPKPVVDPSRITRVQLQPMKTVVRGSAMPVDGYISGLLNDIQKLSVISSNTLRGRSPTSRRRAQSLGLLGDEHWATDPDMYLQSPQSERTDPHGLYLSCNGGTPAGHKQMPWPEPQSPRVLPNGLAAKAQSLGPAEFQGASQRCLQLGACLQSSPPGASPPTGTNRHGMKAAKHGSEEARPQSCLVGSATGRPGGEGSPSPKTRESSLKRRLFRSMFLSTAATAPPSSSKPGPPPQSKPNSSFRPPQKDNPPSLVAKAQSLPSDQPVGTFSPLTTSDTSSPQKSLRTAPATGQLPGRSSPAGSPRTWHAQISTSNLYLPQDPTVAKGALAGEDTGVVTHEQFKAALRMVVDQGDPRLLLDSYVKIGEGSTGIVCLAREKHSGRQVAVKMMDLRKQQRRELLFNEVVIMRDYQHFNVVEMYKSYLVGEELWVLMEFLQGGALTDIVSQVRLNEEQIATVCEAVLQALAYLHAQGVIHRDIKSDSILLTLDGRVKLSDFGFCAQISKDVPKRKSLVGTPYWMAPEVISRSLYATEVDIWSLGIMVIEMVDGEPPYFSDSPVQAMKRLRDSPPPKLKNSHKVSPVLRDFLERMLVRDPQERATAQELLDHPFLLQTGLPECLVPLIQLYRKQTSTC

[18] = target: EGFR (L858R) (Homo sapiens (Human), UniProt P00533, L858R); assay: KinomeScan; format: binding; details: 1 uM
[19] = target: p38b MAPK (Homo sapiens (Human), UniProt Q15759); assay: Dundee profiling
Chain of p38b MAPK (Q15759 whole entry): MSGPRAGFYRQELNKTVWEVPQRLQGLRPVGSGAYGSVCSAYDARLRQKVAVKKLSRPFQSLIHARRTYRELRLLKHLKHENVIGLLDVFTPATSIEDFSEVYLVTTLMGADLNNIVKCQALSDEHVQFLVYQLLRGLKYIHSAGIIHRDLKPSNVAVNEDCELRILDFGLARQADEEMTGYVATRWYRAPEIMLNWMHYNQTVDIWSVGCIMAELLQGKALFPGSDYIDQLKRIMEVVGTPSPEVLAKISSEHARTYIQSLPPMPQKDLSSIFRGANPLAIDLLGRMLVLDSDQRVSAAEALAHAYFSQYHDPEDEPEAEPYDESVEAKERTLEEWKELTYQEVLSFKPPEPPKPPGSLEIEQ

[20] = read-out: percent remaining enzymatic activity, I1, 1 μM
[21] = read-out: percent remaining enzymatic activity, I10

Chain of RIPK2 (O43353 whole entry, species assumed): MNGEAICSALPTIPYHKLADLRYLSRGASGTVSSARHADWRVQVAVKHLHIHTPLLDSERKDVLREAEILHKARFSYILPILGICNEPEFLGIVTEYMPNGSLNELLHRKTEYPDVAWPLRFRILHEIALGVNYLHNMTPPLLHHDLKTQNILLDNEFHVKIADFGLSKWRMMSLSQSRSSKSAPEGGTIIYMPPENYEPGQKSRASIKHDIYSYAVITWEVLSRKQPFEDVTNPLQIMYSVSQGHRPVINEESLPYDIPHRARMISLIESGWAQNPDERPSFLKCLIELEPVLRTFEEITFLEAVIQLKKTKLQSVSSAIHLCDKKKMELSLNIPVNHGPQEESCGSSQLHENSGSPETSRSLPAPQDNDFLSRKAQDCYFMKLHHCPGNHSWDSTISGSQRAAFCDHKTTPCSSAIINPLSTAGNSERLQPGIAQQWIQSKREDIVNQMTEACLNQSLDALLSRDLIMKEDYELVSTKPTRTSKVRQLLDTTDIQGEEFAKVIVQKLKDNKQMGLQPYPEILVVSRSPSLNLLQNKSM
Chain of PAK5 (Q9P286 whole entry): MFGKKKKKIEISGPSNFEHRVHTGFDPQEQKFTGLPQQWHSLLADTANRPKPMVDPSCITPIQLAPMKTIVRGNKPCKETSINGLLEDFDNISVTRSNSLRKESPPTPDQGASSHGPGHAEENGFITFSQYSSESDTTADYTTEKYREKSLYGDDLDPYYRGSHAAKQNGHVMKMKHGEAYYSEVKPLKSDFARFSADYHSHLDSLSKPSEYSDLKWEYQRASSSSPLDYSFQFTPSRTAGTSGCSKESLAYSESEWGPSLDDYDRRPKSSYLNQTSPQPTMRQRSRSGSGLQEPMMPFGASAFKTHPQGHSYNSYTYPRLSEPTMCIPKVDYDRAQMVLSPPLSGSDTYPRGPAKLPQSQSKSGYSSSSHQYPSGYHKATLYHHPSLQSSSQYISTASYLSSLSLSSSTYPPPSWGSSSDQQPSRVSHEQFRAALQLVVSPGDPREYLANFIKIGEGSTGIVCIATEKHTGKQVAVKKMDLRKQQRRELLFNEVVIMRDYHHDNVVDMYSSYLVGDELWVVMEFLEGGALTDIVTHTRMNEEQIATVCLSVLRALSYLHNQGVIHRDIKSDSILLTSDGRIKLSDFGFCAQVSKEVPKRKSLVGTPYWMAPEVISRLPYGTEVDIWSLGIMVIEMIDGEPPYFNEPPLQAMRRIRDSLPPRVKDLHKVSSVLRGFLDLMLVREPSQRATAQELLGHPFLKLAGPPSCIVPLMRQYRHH

Compound: CNc1nc(Nc2ccc(C(=O)N3CCOCC3)cc2OC)nc2[nH]cc(Cl)c12 [Compound 18, (4-((5-chloro-4-(methylamino)-7H-pyrrolo[2,3-d]pyrimidin-2-yl)amino)-3-methoxyphenyl)(morpholino)methanone]
- remaining activity at 1 µM [1, 20]: 102%
- remaining activity at 1 µM [1, 21]: 83%
- remaining activity at 1 µM [2, 20]: 85%
- remaining activity at 1 µM [2, 21]: 84%
- remaining activity at 1 µM [3, 20]: 89%
- remaining activity at 1 µM [3, 21]: 70%
- remaining activity at 1 µM [4, 20]: 69%
- remaining activity at 1 µM [4, 21]: 12%
- remaining activity at 1 µM [5, 20]: 97%
- remaining activity at 1 µM [5, 21]: 103%
- remaining activity at 1 µM [6, 20]: 86%
- remaining activity at 1 µM [6, 21]: 40%
- remaining activity at 1 µM [7, 20]: 96%
- remaining activity at 1 µM [7, 21]: 42%
- KinomeScan value [8]: 57
- KinomeScan value [9]: 92
- KinomeScan value [10]: 97
- percent remaining enzymatic activity ([11]; I10): 93%
- remaining activity at 1 µM ([11]; read-out: percent remaining enzymatic activity): 110%
- KinomeScan value [12]: 100
- remaining activity at 1 µM [13, 20]: 95%
- remaining activity at 1 µM [13, 21]: 82%
- concentration giving substantial dephosphorylation of Ser910 and Ser935 [14]: approximately 0.3
- remaining activity at 1 µM [15, 20]: 95%
- remaining activity at 1 µM [15, 21]: 68%
- KinomeScan value [16]: 100
- remaining activity at 1 µM [17, 20]: 102%
- remaining activity at 1 µM [17, 21]: 105%
- KinomeScan value [18]: 83
- remaining activity at 1 µM [19, 20]: 108%
- remaining activity at 1 µM [19, 21]: 79%

— patent US10913744B2, “LRRK2 inhibitors and methods of making and using the same” (Dana-Farber Cancer Institute, Inc., priority 2015, dated 2021)
